In patent US5973114A, “Isolation and characterization of the growth hormone releasing hormone receptor” (priority 1992, dated 1999):
“Also recorded” adds a separate entry of the source.

Assays:
[1] = test system: GHRH receptor (GHRH-R); assay: 125I-GHRHa binding assay in crude ovine pituitary membrane pellets; conditions: for displacement of photoprobe binding to membrane pellets: both photoprobes; for competition for the 125I-GHRHa binding site: 100 nM competitor
Method: Specific binding is defined as the difference in the binding seen with 20 pM iodinated analog alone and binding of the analog in the presence of 10 nM non-iodinated GHRHa.
All steps were performed at 4° C. Frozen ovine or bovine anterior pituitaries (ovine: approximately 1 gm/pituitary obtained from Dr. Iain Clarke, Melbourne, Australia; bovine: approximately 2.5 gm/pituitary special handling from Pel-Freez, of Rogers, Ak.) were washed of blood, cleaned of connective tissue and homogenized (using a Dounce homogenizer) in 50 mM HEPES buffer, 100 mM NaCl, 10 mM EDTA, 0.1 μM EGTA, pH 7.4 with 0.5 mM PMSF (phenyl methyl sulfonyl fluoride), 10 μg/ml leupeptin, 10 μg/ml pepstatin A, and 200 U/ml (units/ml) aprotinin. This buffer is used to remove endogenous GTP which might be bound to G proteins and to restore high affinity binding. The homogenate was spun at top speed in a microfuge and the supernatant discarded. The upper (membrane) layer of the pellet was then gently resuspended in binding buffer containing 50 mM Tris buffer, 5 mM EGTA, 5 mM MgCl2, 50 μg/ml alamethicin, 30 μg/ml bacitracin and other protease inhibitors as above.
1/50 pituitary equivalent per tube was incubated in binding buffer with approximately 100,000 counts of iodinated probe in a volume of 500 μl at room temperature for 1 hour. The total counts delivered and the percent of counts bound for each tube was determined with 3 to 6 replicates per experimental condition. Saturation binding profiles were analyzed with the computer program Ligand which performs a statistically weighted least squares fit to the exact ligand binding equation in nontransformed coordinates.

[2] = test system: GHRH-R (55 kDa band); assay: photoaffinity cross-linking of the 55 kDa GHRH-R band, SDS-PAGE autoradiography; format: binding, ovine; conditions: 125I-GHRHa-ANB-NOS probe
Method: Photoprobe binding in ovine pituitary membrane pellets was determined by γ-counting and UV induced cross-linking was examined by autoradiagraphy of sodium dodecylsulfate polyacrylamide electrophoresis (SDS-PAGE) gels. ^125 I-GHRHa -ANB-NOS probe bound with an affinity of about one nanomole, nM (compared to about 160 picomole, pM, for GHRHa).
Photoprobe binding to membranes was evaluated with crude membrane binding assay and then analyzed further by SDS-PAGE electrophoresis to identify the binding sites. Photoprobes were incubated in the dark, photolysed for 10 minutes with a long wave (366 nm) UV lamp, and then the samples were pelleted. The pellets were counted and then extracted by boiling directly in SDS sample buffer (total SDS extracts). Alternatively, the labeled pellets were extracted in a mild detergent solution (5 mM CHAPS) centrifuged, and the chloroform/methanol concentrated supernatants denatured with SDS buffer (CHAPS extracts). These samples were then electrophoresed in SDS gels and autoradiographed.

[3] = molecular target: T1, secretin and VIP receptors (Homo sapiens, UniProt P47872); conditions: 10 μM; human pancreas; cited from earlier work
T1 construct: host or cells: human pancreas
T1 sequence (P47872 23-440): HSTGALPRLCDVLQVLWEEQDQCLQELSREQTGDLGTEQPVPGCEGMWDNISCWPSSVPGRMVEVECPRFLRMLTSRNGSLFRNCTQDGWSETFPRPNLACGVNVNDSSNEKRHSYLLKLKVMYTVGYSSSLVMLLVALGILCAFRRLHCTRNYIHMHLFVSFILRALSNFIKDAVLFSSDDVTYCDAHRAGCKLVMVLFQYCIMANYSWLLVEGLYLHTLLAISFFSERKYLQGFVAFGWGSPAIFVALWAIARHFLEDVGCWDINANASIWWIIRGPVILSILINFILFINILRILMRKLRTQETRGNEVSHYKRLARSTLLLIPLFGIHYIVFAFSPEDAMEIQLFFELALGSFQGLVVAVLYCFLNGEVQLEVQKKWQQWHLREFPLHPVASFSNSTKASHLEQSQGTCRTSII

In the case of `O[C@H](CS)[C@H](O)CS` (racemic) [DTT, dithiothreitol], the “effect on specific binding in the GHRH assay” value ([1]; preincubation with 1 mM DTT) is reported as “completely eliminated”.

For `Nc1nc2c(ncn2[C@@H]2O[C@H](COP(=O)(O)OP(=O)(O)OP(O)(O)=S)[C@@H](O)[C@H]2O)c(=O)[nH]1` [GTPγS], the “displacement of photoprobe binding to membrane pellets” value ([1]; 50 μM GTPγS) was “partially displaced” and the “reduction of the 55 kDa cross-linked band” value ([2]; 50 μM GTPγS) was “over 50%”.

In the case of GHRH(1-29)-NH2, the “inhibition of 125I-secretin binding” value [3] is listed as 20%.

For “[His^1, Nle^27 ]-GHRH-(1-32)-NH2 [GHRHa]”, the “displacement of photoprobe binding to membrane pellets” value ([1]; 10 nM GHRHa) was “totally displaced”, the Kd ([1]; crude ovine pituitary membrane pellets, program Ligand, read-out: Kd, saturation binding to a single high affinity site) was about 0.16 nM and the “effect on the 55 kDa cross-linked band” value ([2]; 10 nM GHRHa) was “completely eliminated”.

For “pituitary adenylate cyclase activating peptide [PACAP]”, the “competition for the 125I-GHRHa binding site” value [1] was “did not compete; also recorded: no competition”.

In the case of vasoactive intestinal peptide [VIP], the “competition for the 125I-GHRHa binding site” value [1] is given as “did not compete; also recorded: no competition”, the “effect on the 55 kDa cross-linked band” value ([2]; 100 nM VIP) is given as “unaffected” and the “inhibition of 125I-secretin binding” value [3] is given as 20%.
